Test system: modified version of the GPR119 receptor (94% identity to human receptor) stably expressed in HEK-293 cells
Assay: cAMP Production Assay (LANCE cAMP kit, TR-FRET)
Type: cell-based
Details: for cAMP production in HEK-293 cells: HEK-293 cells expressing modified GPR119, test compounds 0.2 nM to 10 μM, one-hour incubation at ambient temperature; for Fold over baseline: increase in cAMP relative to basal levels, 1.5-fold or greater = agonist activity
Protocol: The assay utilized HEK-293 cells that stably express a modified version of the GPR119 receptor (94% identity to human receptor), under the control of a CMV promoter containing a tet-on element for tetracycline-inducible expression. GPR119 agonist-induced cyclic AMP (cAMP) production was measured in this cell line using the LANCE cAMP kit (Perkin Elmer, Waltham, Mass.). To generate a working stock of cells for the assay, cells were treated overnight with 1 μg/mL doxycycline at 37° C. in the presence of 5% CO2 to induce receptor expression. Cells were then harvested by enzymatic dissociation with 0.05% trypsin, resuspended in freezing medium (DMEM growth medium with 10% each of fetal bovine serum and DMSO), aliquoted and frozen at −80° C. On the day of the assay, frozen cells were thawed, washed 1× in PBS and resuspended in Hank's buffered salt solution (HBSS) containing 5 mM HEPES, 0.1% BSA and Alexa Fluor 647-conjugated anti-cAMP antibody (diluted 1:100). The cell suspension was then transferred to a Proxiplate Plus white 384-well assay plate (Perkin-Elmer) at 2000 cells/well. Test compounds at final concentrations ranging from 0.2 nM to 10 μM were added to the assay plate, followed by a one-hour incubation at ambient temperature (volume=10 μL/well). DMSO concentration was held constant at 0.5%. After incubation with test compounds, 10 μL of a detergent buffer containing a biotinylated cAMP/Europium-conjugated streptavidin complex (Europium-labeled cAMP tracer) were added to each well on the assay plate, followed by a 2-hour incubation at ambient temperature. During this incubation cAMP released from lysed cells competes with the Europium-labeled cAMP tracer for binding to the Alexa Fluor 647-conjugated antibody. […] Cellular cAMP levels were then determined by interpolation of raw signal data using a cAMP standard curve. Compounds were determined to have agonist activity if they stimulated a 1.5-fold or greater increase in cAMP relative to basal levels.

Row | SMILES | cAMP production in HEK-293 cells | Fold over baseline
1 | CS(=O)(=O)c1ccc(O[C@H]2CCN(C3CCN(c4noc(C(F)(F)F)n4)CC3)C2=O)cn1 [Example 56, (S)-3-((6-(methylsulfonyl)pyridin-3-yl)oxy)-1-(1-(5-(trifluoromethyl)-1,2,4-oxadiazol-3-yl)piperidin-4-yl)pyrrolidin-2-one] | 21.1 nmol | 3.3
2 | CS(=O)(=O)c1cc(F)c(N[C@H]2CCCCN(C3CCN(c4noc(C(F)(F)F)n4)CC3)C2=O)cc1F [Example 53, (S)-3-(2,5-difluoro-4-(methylsulfonyl)phenylamino)-1-(1-(5-(trifluoromethyl)-1,2,4-oxadiazol-3-yl)piperidin-4-yl)azepan-2-one] | 11.8 nmol | 4.7
3 | CS(=O)(=O)c1cc(F)c(N[C@H]2CCN(C3CCN(c4noc(C(F)(F)F)n4)CC3)C2=O)cc1F [Example 23, (S)-3-(2,5-difluoro-4-(methylsulfonyl)phenylamino)-1-(1-(5-(trifluoromethyl)-1,2,4-oxadiazol-3-yl)piperidin-4-yl)pyrrolidin-2-one] | 19.2 nmol | 3.6
4 | CC(C)(c1nc(N2CCC(N3CC[C@H](Nc4ccc(S(C)(=O)=O)cc4F)C3=O)CC2)no1)C(F)(F)F [Example 39, (S)-3-(2-fluoro-4-(methylsulfonyl)-phenylamino)-1-(1-(5-(1,1,1-trifluoro-2-methylpropan-2-yl)-1,2,4-oxadiazol-3-yl)piperidin-4-yl)pyrrolidin-2-one] | 8.7 nmol | 2.9
5 | CS(=O)(=O)c1cc(F)c(N[C@H]2CCCN(C3CCN(c4nc(C(F)(F)F)no4)CC3)C2=O)c(F)c1 [Example 10, (S)-3-(2,6-difluoro-4-(methylsulfonyl)phenylamino)-1′-(3-trifluoromethyl-1,2,4-oxadiazol-5-yl)-1,4′-bipiperidin-2-one] | 8.3 nmol | 2.9
6 | CC(F)(F)c1noc(N2CCC(N3CCC[C@H](Nc4cc(F)c(S(C)(=O)=O)cc4F)C3=O)CC2)n1 [Example 61, (S)-3-((2,5-difluoro-4-(methylsulfonyl)phenyl)amino)-1′-(3-(1,1-difluoroethyl)-1,2,4-oxadiazol-5-yl)-[1,4′-bipiperidin]-2-one] | 13.6 nmol | 2.2
7 | CC(C)c1noc(N2CCC(N3CC[C@H](Oc4cc(F)c(S(C)(=O)=O)cc4F)C3=O)CC2)n1 [Example 1, (S)-3-(2,5-difluoro-4-(methylsulfonyl)phenoxy)-1-(1-(3-isopropyl-1,2,4-oxadiazol-5-yl)piperidin-4-yl)pyrrolidin-2-one] | 25.0 nmol | 4.6
8 | CS(=O)(=O)c1ccc(N[C@H]2CCN(C3CCN(c4noc(C(F)(F)F)n4)CC3)C2=O)c(F)c1 [Example 16, (S)-3-(2-fluoro-4-(methylsulfonyl)phenylamino)-1-(1-(5-(trifluoromethyl)-1,2,4-oxadiazol-3-yl)piperidin-4-yl)pyrrolidin-2-one] | 17.0 nmol | 4.3
9 | CS(=O)(=O)c1ccc(N[C@H]2CCN(C3CCN(c4noc(C(F)F)n4)CC3)C2=O)c(F)c1 [Example 21, (S)-1-(1-(5-(difluoromethyl)-1,2,4-oxadiazol-3-yl)piperidin-4-yl)-3-(2-fluoro-4-(methylsulfonyl)phenylamino)pyrrolidin-2-one] | 21.0 nmol | 2.8
10 | CS(=O)(=O)c1cc(F)c(O[C@@H]2CCCN(C3CCN(c4noc(C(F)(F)F)n4)CC3)C2=O)cc1F [Example 67, (R)-3-(2,5-difluoro-4-(methylsulfonyl)phenoxy)-1′-(5-(trifluoromethyl)-1,2,4-oxadiazol-3-yl)-[1,4′-bipiperidin]-2-one] | 43.6 nmol | 3.6
11 | CS(=O)(=O)c1cc(F)c(N[C@H]2CCN(C3CCN(c4nc(C(F)(F)F)no4)CC3)C2=O)c(F)c1 [Example 60, (S)-3-((2,6-difluoro-4-(methylsulfonyl)phenyl)amino)-1-(1-(3-(trifluoromethyl)-1,2,4-oxadiazol-5-yl)piperidin-4-yl)pyrrolidin-2-one] | 18.1 nmol | 3.8
12 | CC(F)(F)c1nc(N2CCC(N3CC[C@H](Nc4cc(F)c(S(C)(=O)=O)cc4F)C3=O)CC2)no1 [Example 64, (S)-3-((2,5-difluoro-4-(methylsulfonyl)phenyl)amino)-1-(1-(5-(1,1-difluoroethyl)-1,2,4-oxadiazol-3-yl)piperidin-4-yl)pyrrolidin-2-one] | 15.8 nmol | 3.3
13 | CC(C)(F)c1nc(N2CCC(N3CC[C@H](Nc4ccc(S(C)(=O)=O)cc4F)C3=O)CC2)no1 [Example 42, (S)-3-(2-fluoro-4-(methylsulfonyl)-phenylamino)-1-(1-(5-(2-fluoropropan-2-yl)-1,2,4-oxadiazol-3-yl)piperidin-4-yl)pyrrolidin-2-one] | 12.5 nmol | 5.1
14 | CC(C)(C)c1noc(N2CCC(N3CC[C@H](Oc4ccc(S(C)(=O)=O)cc4F)C3=O)CC2)n1 [Example 5, (S)-1-(1-(3-tert-butyl-1,2,4-oxadiazol-5-yl)piperidin-4-yl)-3-(2-fluoro-4-(methylsulfonyl)phenoxy)pyrrolidin-2-one] | 22.7 nmol | 4.8
15 | CS(=O)(=O)c1cc(F)c(N[C@H]2CCCN(C3CCN(c4noc(C(F)(F)F)n4)CC3)C2=O)cc1F [Example 25, (S)-3-(2,5-difluoro-4-(methylsulfonyl)phenylamino)-1′-(5-(trifluoromethyl)-1,2,4-oxadiazol-3-yl)-1,4′-bipiperidin-2-one] | 49.0 nmol | 2.9
16 | CS(=O)(=O)c1ccc(N[C@H]2CCCN(C3CCN(c4noc(C(F)(F)F)n4)CC3)C2=O)c(F)c1 [Example 29, (S)-3-(2-fluoro-4-(methylsulfonyl)phenylamino)-1′-(5-(trifluoromethyl)-1,2,4-oxadiazol-3-yl)-1,4′-bipiperidin-2-one] | 47.6 nmol | 3.0
17 | CS(=O)(=O)c1cc(F)c(O[C@H]2CCCN(C3CCN(c4noc(C(F)(F)F)n4)CC3)C2=O)cc1F [Example 54, (S)-3-(2,5-difluoro-4-(methylsulfonyl)phenoxy)-1′-(5-(trifluoromethyl)-1,2,4-oxadiazol-3-yl)-[1,4′-bipiperidin]-2-one] | 19.9 nmol | 4.9
18 | CS(=O)(=O)c1ccc(N[C@H]2CCN(C3CCN(c4noc(C(Cl)(Cl)Cl)n4)CC3)C2=O)c(F)c1 [Example 13, (S)-3-(2-fluoro-4-(methylsulfonyl)phenylamino)-1-(1-(5-(trichloromethyl)-1,2,4-oxadiazol-3-yl)piperidin-4-yl)pyrrolidin-2-one] | 17.3 nmol | 3.0
19 | CC(C)c1nc(N2CCC(N3CC[C@H](Nc4ccc(S(C)(=O)=O)cc4F)C3=O)CC2)no1 [Example 15, (S)-3-(2-fluoro-4-(methylsulfonyl)phenylamino)-1-(1-(5-isopropyl-1,2,4-oxadiazol-3-yl)piperidin-4-yl)pyrrolidin-2-one] | 20.8 nmol | 3.8
20 | CS(=O)(=O)c1ccc(N[C@H]2CCN(C3CCN(c4noc(C(F)F)n4)CC3)C2=O)cn1 [Example 58] | 15.8 nmol | 2.6
21 | CC(C)c1noc(N2CCC(N3CC[C@H](Oc4ccc(S(C)(=O)=O)cc4F)C3=O)CC2)n1 [Example 2, (S)-3-(2-fluoro-4-(methylsulfonyl)phenoxy)-1-(1-(3-isopropyl-1,2,4-oxadiazol-5-yl)piperidin-4-yl)pyrrolidin-2-one] | 27.4 nmol | 5.6
22 | CS(=O)(=O)c1cc(F)c(O[C@H]2CCN(C3CCN(c4noc(C(F)(F)F)n4)CC3)C2=O)cc1F [Example 27, (S)-3-(2,5-difluoro-4-(methylsulfonyl)phenoxy)-1-(1-(5-(trifluoromethyl)-1,2,4-oxadiazol-3-yl)piperidin-4-yl)pyrrolidin-2-one] | 98.9 nmol | 5.1
23 | CS(=O)(=O)c1ccc(N[C@H]2CCN(C3CCN(c4noc(-c5ccccc5)n4)CC3)C2=O)c(F)c1 [Example 44, (S)-3-(2-fluoro-4-(methylsulfonyl)-phenylamino)-1-(1-(5-phenyl-1,2,4-oxadiazol-3-yl)piperidin-4-yl)pyrrolidin-2-one] | 19.5 nmol | 6.8

Source: patent US20130184257A1, “PIPERIDINYL-SUBSTITUTED LACTAMS AS GPR119 MODULATORS” (priority 2010, published 2013)
